Data on one substance can be found in patent US20080076711A1, “Therapeutic agents for osteopenia” (Chugai Seiyaku Kabushiki Kaisha, priority 2001, published 2008).

The subject of one experiment is osteoporosis patients. The following applies: 21 patients, once-daily subcutaneous injections for 6 to 24 months; cited from earlier work.
Experiment [1] deals with wild-type strain 129 female mice. As to the kind of experiment: Determination of cortical bone thickness and area after PTH treatment, wild-type mice. It is filed as in vivo, mouse. Particulars: WT mice, PTH(+) group, 80 μg/kg s.c., 4 weeks. How it is done: Horizontal sections were prepared from the femoral mid-diaphysis and tomographed using an X-ray microtomograph Musashi (Nittetsu-ELEX, Osaka, Japan). A Luzex-F automated image analysis system (Nireco, Tokyo, Japan) was then used for analysis of the image data to determine the thickness and area of cortical bone. The thickness was evaluated at the mean value averaged over 8 measurements every 45°. Recombinant human PTH(1-34) (Bachem, Torrance, Calif.) was dissolved in acidified physiological saline supplemented with 0.1% bovine serum albumin (Sigma Chemical Co.-Aldrich, St. Louis, Mo.). The OPN-KO mice were subcutaneously administered with 80 μg/kg of body weight human PTH(1-34) for 4 weeks on a five-days-a-week basis. Mice in the control group were administered with physiological saline alone. The effect of PTH on bone metabolism was also examined in the same manner as shown in Example 1, using wild-type strain 129 female mice (7 weeks of age). These mice were divided into groups of 6 mice each.

For experiment [2] the test system is unchanged. The experiment can be described thus: BFR and MAR in cancellous bone (distal end of femur) after PTH treatment, wild-type mice. It is filed as in vivo, mouse. Particulars: WT mice. The protocol: BFR denotes bone formation rate per unit trabecular area (μm^3/μm^2/day). MAR denotes the rate of increase in the distance between labeled calcified bands (μm/day). In the case of cancellous bone, decalcified sagittal sections were prepared from the metaphyseal region and analyzed for BFR and MAR in a 1.4 mm^2 square area located 0.2 mm apart from the growth plate of the distal end of femur. Labeling was accomplished by subcutaneous administration of xylenol orange (100 mg/kg of body weight) 4 days before and calcein 2 days before sampling. Recombinant human PTH(1-34) (Bachem, Torrance, Calif.) was dissolved in acidified physiological saline supplemented with 0.1% bovine serum albumin (Sigma Chemical Co.-Aldrich, St. Louis, Mo.). The OPN-KO mice were subcutaneously administered with 80 μg/kg of body weight human PTH(1-34) for 4 weeks on a five-days-a-week basis. Mice in the control group were administered with physiological saline alone. The effect of PTH on bone metabolism was also examined in the same manner as shown in Example 1, using wild-type strain 129 female mice (7 weeks of age). These mice were divided into groups of 6 mice each.

For experiment [3] the test system is unchanged. As to the kind of experiment: Analysis of urinary deoxypyridinoline (Dpyr) after PTH treatment, wild-type mice. It counts as in vivo, mouse. Particulars: WT mice. How it is done: At 26 days after treatment with PTH, a 24-hour urine sample was collected from each mouse (10 samples per group). As a marker of bone metabolism, the level of urinary deoxypyridinoline (Dpyr) was measured for each sample using an ELISA kit (Metra Biosystems, San Diego, Calif.) in accordance with the manufacturer's protocol. Recombinant human PTH(1-34) (Bachem, Torrance, Calif.) was dissolved in acidified physiological saline supplemented with 0.1% bovine serum albumin (Sigma Chemical Co.-Aldrich, St. Louis, Mo.). The OPN-KO mice were subcutaneously administered with 80 μg/kg of body weight human PTH(1-34) for 4 weeks on a five-days-a-week basis. Mice in the control group were administered with physiological saline alone. The effect of PTH on bone metabolism was also examined in the same manner as shown in Example 1, using wild-type strain 129 female mice (7 weeks of age). These mice were divided into groups of 6 mice each.

Experiment [4] concerns OPN knockout (OPN-KO) mice. As to the kind of experiment: BFR and MAR in cancellous bone (distal end of femur) after PTH treatment, OPN-KO mice. It is filed as in vivo, mouse. The protocol: BFR denotes bone formation rate per unit trabecular area (μm^3/μm^2/day).
MAR denotes the rate of increase in the distance between labeled calcified bands (μm/day).
In the case of cancellous bone, decalcified sagittal sections were prepared from the metaphyseal region and analyzed for BFR and MAR in a 1.4 mm^2 square area located 0.2 mm apart from the growth plate of the distal end of femur. Labeling was accomplished by subcutaneous administration of xylenol orange (100 mg/kg of body weight) 4 days before and calcein 2 days before sampling.
(§1) To create an animal model in which the in vivo effects of OPN were inhibited, strain 129 female mice at 7 weeks of age were modified into knockout mice deficient in the OPN gene (OPN-KO mice), as described in Rittling et al. J. Bone Miner. Res., 13: 1101-1111, 1998. These mice were singly used for PTH treatment test. They were divided into groups of 6 mice each.
(§2) Recombinant human PTH(1-34) (Bachem, Torrance, Calif.) was dissolved in acidified physiological saline supplemented with 0.1% bovine serum albumin (Sigma Chemical Co.-Aldrich, St. Louis, Mo.). The OPN-KO mice were subcutaneously administered with 80 μg/kg of body weight human PTH(1-34) for 4 weeks on a five-days-a-week basis. Mice in the control group were administered with physiological saline alone.

Experiment [5] has as its system OPN knockout (OPN-KO) mice. As to the kind of experiment: Determination of cancellous bone mass (BV/TV) after PTH treatment, OPN-KO mice. It counts as in vivo, mouse. Particulars: PTH(+) group, 80 μg/kg s.c., 4 weeks, five days a week, mean ± standard error. The protocol: Sagittal sections were prepared from the metaphyseal region of femur and tomographed using an X-ray microtomograph Musashi (Nittetsu-ELEX, Osaka, Japan). A Luzex-F automated Image analysis system (Nireco, Tokyo, Japan) was then used for analysis of the image data from a 1.47 mm^2 square area (0.7 mm×2.1 mm) located 0.2 mm apart from the growth plate of the distal end of femur to obtain BV/TV values.
BV/TV (bone volume/total tissue volume) denotes the unit bone mass (%), i.e., the percentage of the total trabecular volume in the total tissue volume. Namely, an increase in BV/TV means an increase in calcified bone.
as §1, §2

Experiment [6] concerns OPN knockout (OPN-KO) mice. The experiment can be described thus: Analysis of urinary deoxypyridinoline (Dpyr) after PTH treatment, OPN-KO mice. It counts as in vivo, mouse. The protocol:
At 26 days after treatment with PTH, a 24-hour urine sample was collected from each mouse (10 samples per group). As a marker of bone metabolism, the level of urinary deoxypyridinoline (Dpyr) was measured for each sample using an ELISA kit (Metra Biosystems, San Diego, Calif.) in accordance with the manufacturer's protocol.
as §1, §2

[7] abbreviates: PTH(+) group, 80 μg/kg s.c., 4 weeks.
[8] abbreviates: PTH(+) group, 24-hour urine at 26 days.
The mark [9] stands for this setting: OPN-KO mice, PTH(+) group, 80 μg/kg s.c., 4 weeks, distal end of femur.
Setting [10] is: OPN-KO mice, PTH(+) vs PTH(−) group, p<0.05.
The mark [11] stands for this setting: cancellous bone, OPN-KO vs WT mice, p<0.05.

For human PTH(1-34), in the experiment with osteoporosis patients, the calcium balance entry is listed as “no improvement in calcium balance”, the cancellous bone mass entry is “increased cancellous bone mass” and the cortical bone mass entry is “reduced cortical bone mass”. In experiment [1], the “area of cortical bone” value is recorded as 0.69±0.03 mm^2 and the “thickness of cortical bone” value is 0.20±0.01 mm. Besides, in experiment [2] (setting [7]), the “BFR in cancellous bone” value stood at 1.85±0.08 μm^3/μm^2/day and the “MAR in cancellous bone” value is recorded as 4.84±0.21 μm/day. In experiment [2] (PTH(+) vs PTH(−) group, p<0.05), the “fold increase in cancellous BFR by PTH treatment” value was “about 1.4 fold” and the “fold increase in cancellous MAR by PTH treatment” value is reported as about 1.3 fold. Also, the “urinary Dpyr level” value in experiment [3] (setting [8]) turned out to be 34.86±6.90 nM/mM Cr. Moreover, the “fold increase in systemic bone resorption (urinary Dpyr) by PTH treatment” value in experiment [3] (PTH(+) vs PTH(−) group, p<0.05) is about 1.2 fold. Also, in experiment [4] (setting [9]), the “BFR in cancellous bone” value stood at 2.68±0.34 μm^3/μm^2/day and the “MAR in cancellous bone” value is given as 6.21±1.11 μm/day. Also, in experiment [4] (setting [10]), the “fold increase in cancellous BFR by PTH treatment” value is about 2.1 fold and the “fold increase in cancellous MAR by PTH treatment” value was about 1.7 fold. Moreover, in experiment [4] (setting [11]), the “elevation in the magnitude of PTH-induced increase in BFR caused by lack of OPN” value is about 1.3 fold and the “elevation in the magnitude of PTH-induced increase in MAR caused by lack of OPN” value is “about 1.4 fold”. Further, the “cancellous bone mass BV/TV” value in experiment [5] was determined as 24.41±2.85%. The “urinary Dpyr level” value in experiment [6] (setting [8]) was 34.67±4.52 nM/mM Cr. Moreover, the “fold increase in systemic bone resorption (urinary Dpyr) by PTH treatment” value in experiment [6] (PTH(+) vs PTH(−) group, p<0.05) was about 1.2 fold.
